From US20160324836A1, “INJECTABLE DEPOT FORMULATIONS” (pSivida US.Inc., priority 2015, published 2016)
Converted amounts (≈) assume the structure as drawn.

Assay: Solubility in ethanol
Format: physicochemical
Conditions: organic solvent or mixture
Procedure: In preferred embodiments, the solvent is ethanol. […] Similarly, preferred kinase inhibitors, such as apatinib, axitinib, cabozantinib, cediranib, crenolanib, foretinib, lenvatinib, linifanib, masitinib, motesanib, nintedanib, pazopanib, pegaptanib, regorafenib, semaxanib, sorafenib, sunitinib, tivozanib, toceranib, vandetanib, vatalanib, bafetinib, bosutinib, dasatinib, imatinib, nilotinib, ponatinib, radotinib, and SU6656, are generally soluble in ethanol, e.g., at 1.0 mg/mL or higher.

solubility: ~3300 µg/mL (≈ 7.1 mM)
SMILES: CNC(=O)c1cc(Oc2ccc(NC(=O)Nc3ccc(Cl)c(C(F)(F)F)c3)cc2)ccn1 [sorafenib]
